Patent US9464064B2, “HCV helicase inhibitors and methods of use thereof” (University of Kansas, priority 2011, dated 2016)
Like-named read-outs stand apart in the source and are kept apart here.

Columns and labels:
[1] = target: T1, HCV NS3 helicase NS3h_1b(con1) (Hepatitis C virus genotype 1b, UniProt Q9WMX2); assay: biochemical; type: biochemical, hepatitis C virus genotype 1b(con1)
T1 construct: truncated C-terminally His-tagged NS3 proteins lacking the N-terminal protease, called NS3h; His-tag (C); made in house
From the text: (§1) All oligonucleotides were purchased from Integrated DNA Technologies (IDT, Coralville, Iowa). The partially duplex DNA substrates used in MBHAs consisted of a helicase substrate forming 25 base pairs and consists of a 45-mer bottom strand 5′-GCTCCCCGTTCATCGATTGGGGAGC(T)20-3′ (SEQ ID NO:1) and the 25-mer HCV top strand 5′-Cy5-GCTCCCCAATCGATGAACGGGGAGC-IBRQ-3′ (SEQ ID NO:2). The 19 base pair RNA substrate used in MBHAs was composed of a 39 nucleotide long bottom strand 5′-AGU GCC UUG ACG AUA CAG C(U)20-3′ (SEQ ID NO:3) and the 24 nucleotide long top strand 5′-Tye^665-AGUGCGCUGUAUCGUCAAGGCACU-IBRQSp-3′ (SEQ ID NO:4). Underlined areas denote hairpin-forming regions. DNA and RNA substrates were annealed and purified as described previously (Belon & Frick (2008) BioTechniques 45:433-40, 442).
The cloning, expression, and purification of His-tagged recombinant HCV NS3 protein have been described previously (Lam, et al. (20030 J. Virol. 77:3950-61; Heck, et al. (2008) Antimicrob. Agents Chemother. 52:1901-11; Frick et al. (2010) Methods Mol. Biol. 587:223-233; Belon, et al. & Frick (2009) J. Mol. Biol. 388:851-864).
(§2) All molecular beacon-based helicase assays (MBHAs) were performed according to known methods (Belon & Frick (2008) supra; Belon & Frick (2009) supra). […] In each flat, black 384-well plate, 56 compounds were tested, in triplicate, along with three negative controls (DMSO only), three positive controls (500 nM dT20), and two wells with no enzyme. Fluorescence was read before ATP (F0) addition and 30 minutes after ATP was added to 1 mM (F30) using a Tecan Infinite M200 fluorescence microplate reader with excitation and emission wavelengths set to 643 and 670 nm, respectively. Percent inhibition was calculated with equation 1, and compound interference in the MBHA was calculated with equation 2.
To monitor helicase reaction kinetics and to calculate IC50 values, MBHAs were performed in 60 μL in white ½ area 96-well plates and measured in a Thermo Varioscan Multimode reader (Thermo Scientific) using the 643 nm excitation wavelength and 667 emission wavelengths. Reactions were again performed by first incubating all components except for ATP for two minutes, then initiated by injecting in 1/10 volume of ATP such that the final concentration of all components was as noted above. Conditions were as described above except that 5% v/v DMSO was present in each assay. Initial reaction velocities were calculated by fitting first-order decay equation to data obtained after ATP addition and calculating an initial velocity form the resulting amplitude and rate constant.
[formula] where, v0 is the velocity observed in DMSO-only controls inhibition, h is the Hillslope coefficient, [I] is the concentration of test compound.

NS3h_1b(con1) = target: T2, NS3h_1b(con1) (Hepatitis C virus genotype 1b, UniProt Q9WMX2); assay: ATP hydrolysis assay (malachite green); type: biochemical
T2 construct: truncated C-terminally His-tagged NS3 proteins lacking the N-terminal protease, called NS3h; His-tag (C); made in house
Method: A modified “malachite green” assay (Lanzetta, et al. (1979) Anal. Biochem. 100:95-97) was used to measure ATP hydrolysis. Fifty μL reactions contained 25 mM MOPS pH 6.5, 5 mM MgCl2, 2 mM ATP, 5 μg/mL BSA, 0.01% (v/v) TWEEN 20, 0.05 mM DTT, and poly(U) RNA (Saint Louis, Mo.) as indicated. Reactions were initiated by adding NS3h_1b(con1). Reactions were incubated for 15 minutes at 37° C. then stopped by mixing 40 μL of the reaction into 200 μL of the malachite green reagent (3 volumes 0.045% (w/v) malachite green, 1 volume 4.2% ammonium molybdate in 4N HCl, 0.05 volume of 20% TWEEN 20). […] Absorbance at 630 nm was proportional to the concentration of phosphate produced; free phosphate produced was measured against a standard curve.

MBHA DNA substrate [2] = assay: Fluorescent intercalation displacement (FID) assay, ethidium bromide; type: binding; conditions: FID; mean ± SD; read-out: DNA Binding (Ethidium Bromide) EC50
Method: Fluorescent intercalation displacement (FID) assays (Boger, et al. (2001) J. Am. Chem. Soc. 123:5878-5891) were used to measure the ability of a compound to bind the MBHA substrate. The concentration at which half the ethidium bromide is displaced (EC50) was determined using the different conditions as above to more closely mimic the conditions of a standard helicase assay. Each 100 μL reaction contained 25 mM MOPS pH 6.5, 0.16 μM MBHA DNA substrate (lacking Cy5 and IBQ-RQ modifications), 2 μM ethidium bromide, and various concentrations of test compound. Fluorescence of ethidium bromide was monitored using excitation and emission wavelengths of 545 and 595 nm, respectively, on a Cary Eclipse fluorescence spectrophotometer in white 96-well plates. The amount of ethidium bromide-DNA complex fluorescence was used to estimate the ability of compounds to bind DNA, and therefore displace the fluorescent intercalator (ethidium bromide).
In Equation 4, Fc is the fluorescence in the presence of the compound, F(−) is the average DMSO-only negative controls, and F(+) is the average positive controls (100 μM berenil). EC50 values were from a normalized dose-response curve.
These twelve hits were then subjected to a counterscreen designed to independently identify DNA binding compounds using a modified fluorescent intercalator displacement (FID) assay (Boger, et al. (2001) supra). The FID assay used ethidium bromide to judge a compound's ability to bind DNA and was based on the assumption that a DNA binding compound would displace a fluorescent DNA intercalating agent, leading to an observable decrease in observed fluorescence. Compounds were tested at 1.5 μM in the presence of the 25 base pair substrate used in the helicase assays.

MBHA DNA substrate [3] = assay: Modified FID assay, SYBR Green I; type: binding; conditions: FID; mean ± SD; read-out: DNA Binding (SYBR Green I) EC50
Method: A modified FID assay, in which ethidium bromide was replaced with SYBR Green I (Invitrogen), was used to estimate a compounds affinity for the MBHA substrate. Reactions were performed as described above except that the DNA substrate was present at 0.32 μM, ethidium bromide was absent, and SYBER Green was present at (0.68 μM). Data were normalized as described above and fit to concentration-response equation using GraphPad Prism software. Titrations with each compound were performed in triplicate, and EC50 values from three independent titrations are reported ±standard deviations.

[4] = target: T3, E. coli SSB-Cy5-dT15 complex (Escherichia coli, UniProt P0AGE0); assay: Escherichia coli SSB Cy5-dT15 binding assay (fluorescence polarization); conditions: disruption of Cy5-dT15-SSB complex; read-out: Cy5-dT15-SSB Binding IC50
T3 construct: purchased Promega
Method: The Escherichia coli SSB assay was performed in a total volume of 20.2 μl in 384-well, flat-bottom, low volume, black microplates (Greiner Bio-One). First, 20 μl of a assay solution (5 nM Cy5-[…]-3′ (Cy5-dT15, SEQ ID NO:5), 20 nM E. coli SSB (Promega), 25 mM MOPS, pH 7.5, 1.25 mM MgCl2, 0.0025 mg/ml BSA, 0.005% (v/v) TWEEN 20 and 0.025 mM DTT) was dispensed in each well, then 0.2 μl of dimethylsulfoxide (DMSO) or compound dissolved in DMSO was added by pin transfer, such that the final concentration of DMSO was 1% (v/v) in each assay.
For IC50 determination, assays were performed with 60 μl total volume in black flat bottomed 384-well microplates (Corning). First, 3.0 μl of DMSO or compound dissolved in DMSO was added, such that the final concentration of DMSO was 5% (v/v) in each assay. Then 57 μl of a assay solution (5 nM Cy5-dT15, 20 nM SSB, 25 mM MOPS, pH 7.5, 1.25 mM MgCl2, 0.0025 mg/ml BSA, 0.005% (v/v) TWEEN 20 and 0.025 mM DTT) was dispensed in each well. Polarization was monitored with a TECAN Infinite M1000 PRO multi-mode microplate reader by exciting at 635 nm (5 nm bandwidth) and measuring total fluorescence intensity, parallel and perpendicular polarized light at 667 nm (20 nm bandwidth).

HCV helicase = target: T4, HCV helicase (Hepatitis C virus genotype 1b, UniProt Q9WMX2); assay: MBHA with RNA substrate (HCV helicase-catalyzed RNA unwinding); type: biochemical; conditions: in words
T4 construct: truncated C-terminally His-tagged NS3 proteins lacking the N-terminal protease, called NS3h; His-tag (C); made in house
From the text: as §1, §2
To monitor helicase reaction kinetics and to calculate IC50 values, MBHAs were performed in 60 μL in white ½ area 96-well plates and measured in a Thermo Varioscan Multimode reader (Thermo Scientific) using the 643 nm excitation wavelength and 667 emission wavelengths. […] Initial reaction velocities were calculated by fitting first-order decay equation to data obtained after ATP addition and calculating an initial velocity form the resulting amplitude and rate constant.

Huh-7.5 cells = assay: Cell viability assay ([…]-GLO); type: cell-based, human; conditions: 10 μM
Method: To assess compound toxicity toward Huh-7.5 cells, cells were plated and treated as above and cell viability was assessed using the […]-GLO luminescent cell viability kit (PROMEGA) following the manufacturer's instructions. Briefly, at the end of a 72 hour incubation period, the medium was aspirated and the cells were washed with 1×PBS, then an equal volume of growth medium and […]-GLO reagent was added and the lysis was initiated by mixing on an orbital shaker. The plate was incubated at 23° C. for 30 minutes and the luciferase activity was measured for 1 second using the FLUOSTAR Omega microplate reader (BMG Labtech).

[5] = MBHA, DNA unwinding, mean ± SD of three titrations, read-out: Helicase IC50
[6] = standard HCV helicase MBHA (Table 9), read-out: DNA Unwinding IC50

T3 sequence (P0AGE0 2-178, one chain of several): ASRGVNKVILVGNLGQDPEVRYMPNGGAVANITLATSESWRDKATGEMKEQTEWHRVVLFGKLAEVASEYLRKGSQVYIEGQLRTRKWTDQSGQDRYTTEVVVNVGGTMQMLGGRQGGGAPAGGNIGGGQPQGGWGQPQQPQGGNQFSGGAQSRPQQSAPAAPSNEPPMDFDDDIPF
T1 sequence (Q9WMX2 1192-1657): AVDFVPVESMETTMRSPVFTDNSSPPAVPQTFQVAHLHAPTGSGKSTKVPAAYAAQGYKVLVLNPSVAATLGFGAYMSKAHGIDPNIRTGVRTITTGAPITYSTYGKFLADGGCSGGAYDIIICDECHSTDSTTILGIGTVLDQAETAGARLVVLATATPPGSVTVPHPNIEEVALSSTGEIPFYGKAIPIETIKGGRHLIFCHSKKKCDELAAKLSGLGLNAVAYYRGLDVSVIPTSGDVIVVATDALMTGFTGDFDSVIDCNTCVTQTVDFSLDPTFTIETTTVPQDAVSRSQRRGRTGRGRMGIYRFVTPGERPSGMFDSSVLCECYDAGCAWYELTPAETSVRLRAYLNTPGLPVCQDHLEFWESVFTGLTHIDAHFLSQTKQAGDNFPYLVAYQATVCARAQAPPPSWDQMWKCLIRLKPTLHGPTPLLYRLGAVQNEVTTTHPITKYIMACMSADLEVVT
T2 sequence (Q9WMX2 1192-1657): as above
T4 sequence (Q9WMX2 1192-1657): as above

| Structure (SMILES) | IC50 [1, 5] | IC50 [1, 6] | IC50 (NS3h_1b(con1)) | EC50 (MBHA DNA substrate [2]) | EC50 (MBHA DNA substrate [3]) | IC50 [4] | effect on HCV helicase catalyzed RNA unwinding (HCV helicase) | effect on HCV helicase catalyzed DNA unwinding ([1]; in words) | toxicity to cells (Huh-7.5 cells) |
| --- | --- | --- | --- | --- | --- | --- | --- | --- | --- |
| Cc1cc2sc(-c3ccc(N)cc3)nc2cc1S(=O)(=O)O [Compound P1b, 2-(4-aminophenyl)-6-methylbenzo[d]thiazole-5-sulfonic acid] | 122 ± 5 µM | 122 ± 5 µM | > 100 µM | > 100 µM | > 100 µM | 19 ± 8 µM |  |  |  |
| Cc1cc(C(O)(c2ccc(Nc3ccccc3)cc2)c2ccc(Nc3ccc(S(=O)(=O)O)cc3)cc2)ccc1N (centres unmarked) [Compound 3, reference compound] | 17 ± 7 µM |  | > 100 µM | 4 ± 2 µM | 20 ± 2 µM |  |  |  |  |
| Cc1ccc2c(c1)sc(-c1ccc(N(C)C)cc1)[n+]2C.[Cl-] [thioflavine T, reference compound] |  |  |  |  |  |  | no effect | no effect |  |
| CCN(CC)c1ccc(-c2nc3ccc(C)c(S(=O)(=O)O)c3s2)cc1 [Compound T1, 2-(4-(diethylamino)phenyl)-6-methylbenzo[d]thiazole-7-sulfonic acid] | 33 ± 24 µM | 33 ± 24 µM | > 100 µM | > 100 µM |  | 7 ± 2 µM |  |  |  |
| Cc1cc2sc(-c3ccc4nc(-c5ccc(N)cc5)sc4c3)nc2cc1S(=O)(=O)O [Compound P2b, 2′-(4-aminophenyl)-6-methyl-[2,6′-bibenzo[d]thiazole]-5-sulfonic acid] | 10 ± 4.6 µM | 7 ± 4 µM | > 100 µM | 73 ± 36 µM | 32 ± 3 µM | 1 µM |  |  |  |
| CCOc1ccc2c(NNC(=O)c3cnccn3)c3c(nc2c1)CCCC3 [Compound 1, reference compound] | > 100 µM |  | > 100 µM | > 100 µM | > 100 µM |  |  |  | None of the comparison helicase inhibitors were particularly toxic at 10 μM except for 1 |
| CO[C@@H]1[C@H](O)C[C@@H](O[C@@H]2C[C@H](Oc3cc4cc5c(c(O)c4c(O)c3C)C(=O)[C@@H](O[C@H]3C[C@@H](O[C@H]4C[C@@H](O[C@H]6C[C@](C)(O)[C@@H](OC(C)=O)[C@H](C)O6)[C@H](O)[C@@H](C)O4)[C@H](O)[C@@H](C)O3)[C@H]([C@H](OC)C(=O)[C@@H](O)[C@@H](C)O)C5)O[C@H](C)[C@@H]2OC(C)=O)O[C@@H]1C [Chromomycin A3, reference compound] | 0.15 ± 0.03 µM |  |  |  |  |  | no effect |  |  |
| Cc1ccc2nc(-c3ccc(N)cc3)sc2c1S(=O)(=O)O [Compound P1a, 2-(4-aminophenyl)-6-methylbenzo[d]thiazole-7-sulfonic acid] | 70 ± 31 µM | 70 ± 31 µM | > 100 µM | > 100 µM | > 100 µM | 13 ± 4 µM |  |  |  |
| CN1CCN(Cc2cc(CN3CCN(C)CC3)c(O)c(=O)c(CN3CCN(C)CC3)c2)CC1 [Compound 4, reference compound] | 19 ± 8 µM |  | > 100 µM | > 100 µM | 74 ± 21 µM |  |  |  |  |
| CCN(CC)c1ccc(-c2nc3ccc(-c4nc5ccc(C)c(S(=O)(=O)O)c5s4)cc3s2)cc1 [Compound T2, 2′-(4-(diethylamino)phenyl)-6-methyl-[2,6′-bibenzo[d]thiazole]-7-sulfonic acid] | 26 ± 21 µM | 5 ± 2 µM |  | > 100 µM |  | 2 µM |  |  |  |
